In the supplement of paper PMC10307832:

What was measured:
Experiment in all cases: relative viability (nuclei count vs DMSO), 5 days (fraction); higher = more cells survive
FG-4592 + Pemetrexed = compound: Cc1nc(C(=O)NCC(=O)O)c(O)c2ccc(Oc3ccccc3)cc12 [FG-4592] + Nc1nc2[nH]cc(CCc3ccc(C(=O)N[C@@H](CCC(=O)O)C(=O)O)cc3)c2c(=O)[nH]1 [Pemetrexed] (partner 0.2 µM)
Procedure, shortened: (§1)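 After 5 days of treatment, lung cancer cells in 1536-well plates were fixed and stained in a single step (final 0.05% Triton X-100, 1% formaldehyde, 1 ug/ml Hoechst) and their nuclei counted on 4× images. Treatment had been applied by pin tool the day after seeding as one drug alone or as a fixed anchor-drug dose with five library-drug doses (not always all listed) in √10 steps. Relative viability is the nuclei count of treated wells divided by that of vehicle wells, and values are medians of duplicate plates.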

FG-4592 + OSI-027 = compound: Cc1nc(C(=O)NCC(=O)O)c(O)c2ccc(Oc3ccccc3)cc12 [FG-4592] + COc1cccc2cc(-c3nc([C@H]4CC[C@H](C(=O)O)CC4)n4ncnc(N)c34)[nH]c12 [OSI-027] (partner 0.5 µM)
Procedure, shortened: as §1

FG-4592 + Lapatinib = compound: Cc1nc(C(=O)NCC(=O)O)c(O)c2ccc(Oc3ccccc3)cc12 [FG-4592] + CS(=O)(=O)CCNCc1ccc(-c2ccc3ncnc(Nc4ccc(OCc5cccc(F)c5)c(Cl)c4)c3c2)o1 [Lapatinib] (partner 2 µM)
Procedure, shortened: as §1

IU1-47 + Foretinib = compound: CC1=CC(=C(N1C2=CC=C(C=C2)Cl)C)C(=O)CN3CCCCC3 [IU1-47] + COc1cc2c(Oc3ccc(NC(=O)C4(C(=O)Nc5ccc(F)cc5)CC4)cc3F)ccnc2cc1OCCCN1CCOCC1 [Foretinib] (partner 0.25 µM)
Procedure, shortened: as §1

| Cell Line | relative viability (FG-4592 + Pemetrexed; first compound 0.08 µM) | relative viability (FG-4592 + Pemetrexed; first compound 0.253 µM) | relative viability (FG-4592 + Pemetrexed; first compound 0.8 µM) | relative viability (FG-4592 + Pemetrexed; first compound 2.53 µM) | relative viability (FG-4592 + Pemetrexed; first compound 8 µM) | relative viability (FG-4592 + OSI-027; first compound 0.08 µM) | relative viability (FG-4592 + OSI-027; first compound 0.253 µM) | relative viability (FG-4592 + OSI-027; first compound 0.8 µM) | relative viability (FG-4592 + OSI-027; first compound 2.53 µM) | relative viability (FG-4592 + OSI-027; first compound 8 µM) | relative viability (FG-4592 + Lapatinib; first compound 0.08 µM) | relative viability (FG-4592 + Lapatinib; first compound 0.253 µM) | relative viability (FG-4592 + Lapatinib; first compound 0.8 µM) | relative viability (FG-4592 + Lapatinib; first compound 2.53 µM) | relative viability (FG-4592 + Lapatinib; first compound 8 µM) | relative viability (IU1-47 + Foretinib; first compound 0.08 µM) | relative viability (IU1-47 + Foretinib; first compound 0.253 µM) | relative viability (IU1-47 + Foretinib; first compound 0.8 µM) | relative viability (IU1-47 + Foretinib; first compound 2.53 µM) | relative viability (IU1-47 + Foretinib; first compound 8 µM) |
| --- | --- | --- | --- | --- | --- | --- | --- | --- | --- | --- | --- | --- | --- | --- | --- | --- | --- | --- | --- | --- |
| HCC-15 | 0.21 | 0.235 | 0.22 | 0.221 | 0.232 | 0.626 | 0.626 | 0.674 | 0.614 | 0.701 | 0.883 | 0.706 | 0.852 | 0.871 | 0.944 | 1.07 | 1.11 | 1.15 | 1.01 | 1.05 |
| HCC-44 | 0.615 | 0.652 | 0.705 | 0.688 | 0.725 | 0.504 | 0.489 |  | 0.476 | 0.377 | 0.99 | 0.948 | 0.835 | 0.96 | 0.96 |  |  |  |  |  |
| HCC-78 | 0.941 |  | 0.901 | 0.871 | 0.909 | 0.346 | 0.307 | 0.406 | 0.357 | 0.362 | 0.696 | 0.733 | 0.701 | 0.892 | 0.9 | 0.608 | 0.57 | 0.615 | 0.551 | 0.606 |
| HCC-366 | 0.182 | 0.148 | 0.242 | 0.181 | 0.258 | 0.455 | 0.934 | 0.784 | 0.484 | 0.703 | 0.89 | 0.998 | 1.1 | 1.1 | 1.13 | 0.872 | 0.92 | 1 | 0.966 | 1.01 |
| HCC-827 | 0.232 | 0.255 | 0.235 | 0.26 | 0.255 | 0.677 | 0.727 | 0.8 | 0.669 | 0.593 | 0.192 | 0.192 | 0.193 | 0.18 | 0.22 | 1.15 | 1.12 | 0.998 | 1.02 | 1.01 |
| HOP-62 | 0.287 | 0.317 | 0.35 | 0.304 | 0.324 | 0.839 | 0.736 | 0.814 | 0.722 | 0.713 | 0.939 | 1.09 | 1.06 | 0.997 | 1.01 | 1.17 | 1.12 | 1.04 | 1.11 | 1.13 |
| IA-LM |  |  |  |  |  |  |  |  |  |  | 0.675 | 0.78 | 0.66 | 0.711 | 0.567 | 1.02 | 1.12 | 0.936 | 1.17 | 1 |
